The subject of data set [1] is macrophages (SR-mediated ox-LDL uptake). As to the kind of experiment: SR-mediated ox-LDL uptake. The class given is cell-based. To be noted: EIPA 25 μM, 1 hr; ox-LDL 50 μg/ml. As for the experimental part: (§1) Foam cell formation: THP-1 macrophages or bone marrow-derived macrophages were treated with vehicle, known macropinocytosis stimulators (PMA 1 μM, M-CSF 100 ng/mL or PDGF 200 ng/mL)+/− macropinocytosis inhibitors (imipramine 10 μM or EIPA 25 μM; 1 hour pre-incubation) in the presence of nLDL, ox-LDL, or ac-LDL ([…]) for 24 hours. Cells were fixed in 2% PFA and stained with Nile Red (50 ng/mL) for 7 min. Fluorescence intensity was measured using the FL3 channel for Nile Red (Ex: 488 nm, Em: 670 nm).

Data set [2] deals with RAW 264.7 macrophages. As to the kind of experiment: Cell viability assay, LIVE/DEAD Fixable Far Red dye. The class given is cell-based. The settings on record: EIPA 25 μM, 1 hr, then PMA 4 hours. On the procedure: Cell viability assay: RAW 264.7 macrophages were plated in 24 well plates at a density of 1×10^6 cells/mL. Twenty four hours later, macrophages were pre-incubated with vehicle or EIPA (25 μM, 1 hr) and treated with PMA (1 μM, 4 hrs). Cells were fixed in 2% PFA, resuspended in FACS buffer (2% BSA and 0.01% sodium azide in PBS), and stained with the LIVE/DEAD™ Fixable Far Red dye to identify live cells. Fluorescence intensity was measured using the FL4 channel (Ex: 650 nm, Em: 660 nm).

Data set [3] has as its system hypercholesterolemic mice (PCSK9-AAV-mediated LDLR knockdown). As to the kind of experiment: Atherosclerosis model: PCSK9-AAV, partial LCA ligation, Western diet. The class given is in vivo, mouse. To be noted: for inhibition of atherosclerotic lesion area (ORO positive area, LCA): continuous infusion via subcutaneous osmotic pump. The source says: Mice were given a single injection of AAV-PCSK9 (1×1011 VG) and fed a Western diet (Envigo, TD.88137, Indianapolis, Ind.). One week after AAV-PCSK9 injection, mice underwent partial carotid ligation surgery as previously described (67) and Western diet was continued for another 3 weeks. In separate experiments, mice were given a single injection of AAV-PCSK9 (1×1011 VG) and fed a Western diet for 16 weeks. Mice were anesthetized (isoflurane inhalation, 3%) and exsanguinated. Blood was collected from left ventricle using a heparinized syringe fitted with a 21 G needle. Aortic arch and carotid arteries were collected, and gross macroscopic images were acquired. For molecular histology studies, carotids and aortic arch were fixed in 4% paraformaldehyde (PFA), embedded in OCT compound and stored at −80° C. until use.
ORO staining: Atherosclerosis development in carotid arteries and whole aorta were studied initially by gross imaging followed by Oil Red O (ORO) staining and plaque quantification. Briefly, the entire aorta was isolated, cleaned of peri-adventitial fat, fixed and imaged on the surface of black silicone-coated dissection dishes. Left carotid arteries were embedded in OCT and 10 μm thick cross-sections were prepared. The arteries were divided into 3 regions based on their distance from the aortic arch: proximal (0-400 μm), middle (2,000-2,400 μm) and distal (4,000-4,400 μm). Frozen sections and whole aortas were then stained with ORO solution (2%) and images were taken using light microscope equipped with a camera under 20× and 1.6× objective lens. The total area, lumen area and ORO positive area were measured for six sections/anatomical position per mouse using Image J software. The ratio of ORO positive area to arterial area is represented as plaque area. Plasma total cholesterol concentrations were determined by the Amplex™ Red Cholesterol Assay Kit (ThermoFisher, Rockford, Ill.). Plasma lipid profiles were obtained by column fractionation and measurements of fraction cholesterol content.
Hematoxylin and Eosin (H&E) or Masson's trichrome staining: Frozen sections were also used for Hematoxylin and Eosin (H&E) or Masson's trichrome staining following standard procedures to evaluate the lesion size and collagen content, respectively.
Orcein and Martius Scarlet Blue (OMSB) staining: OMSB was used for qualitative and quantitative analysis of atherosclerotic plaques as previously described. Briefly, left carotid arteries were dissected out, fixed in 4% buffered paraformaldehyde (pH=7.4) for at least 48 hr, and then routinely processed and embedded in paraffin (tissue processor TP1020; Leica, Wetzlar, Germany). Cross sections were cut every 5 m along the artery (starting from the proximal end) and mounted serially on silanized slides. Sections were stained and mounted automatically using Leica ST5010 Autostainer XL combined with Leica CV5030 Glass Coverslip. Deparaffinized sections through xylene and ethanol, and rehydrate to water. Postfix sections in Bouin's fixative at 56° C. for 1 hour, then rinse for 10 min in tap water to remove traces of picric acid. Stain with orcein for 20 min at 56° C. Differentiate in acidic alcohol for 2 min and then transfer to 96% ethanol for 30 s. Stain with martius yellow for 3 min and rinse in distilled water (2×2 min). Stain with crystal scarlet for 10 min. Differentiate with phosphotungstic acid 2 min and transfer to distilled water (for about 10 s). Stain with methyl blue 5 min. Rinse in acetic acid water 3 min, dehydrate through ethanol and carbol-xylene, clear in xylene, and mount in DPX or other resin. Staining of collagen with picrosirius red. The sections were examined and digital images of stained arteries were recorded using Olympus dotSlide system (Olympus, Tokyo, Japan). Segmentation algorithm allowed to distinguish vessel wall area, lumen area, plaque area, and area of the plaque occupied by collagen. The results were presented as areas of identified components in μm2. […]

In data set [4] the test system is CD36-/-/SR-A-/- BMDM overexpressing HRasG12V. Briefly: Ras (HRasG12V)-induced ox-/ac-LDL internalization, Nile Red FACS. The class given is cell-based, mouse. To be noted: EIPA 25 μM, 1 hr; 50 μg/mL ox-LDL or ac-LDL, 24 hr. As for the experimental part: as §1
HRasG12V mutant adenovirus (AD-HRasG12V) and control adenovirus (AD-GFP) were obtained from Dr. Brian Stansfield. Adenovirus multiplicity of infection (MOI) was calculated according to the OD260 of the adenovirus. Macrophages grown at 60-70% confluence were incubated in 500 μl basal medium containing Ad-GFP or Ad-HRasG12V adenovirus at 200 MOI (multiplicity of infection). After 4 hours, media was replaced with fresh complete tissue culture medium for a continuous culture. Cells were treated as indicated within 48 hours after viral transfection and collected for flow cytometry. Overexpression of adenovirus was confirmed by measuring GFP fluorescence. Fluorescence intensity was measured using the FL1 channel GFP (Ex: 488 nm, Em: 530 nm).

In data set [5] the test system is RAW 264.7 macrophages. As to the kind of experiment: Measurement of cholesterol efflux (DiI). The class given is cell-based. To be noted: EIPA 25 μM, 1 hour. On the procedure:
RAW 264.7 macrophages were pretreated with vehicle or EIPA (25 μM, 1 hour) and incubated with PMA (1 μM) in the presence or absence of Dil-LDL (50 μg/mL) at 37° C. for 24 h. Cells were washed 3 times with PBS, RPMI-1640 medium containing 1% FBS was added and cells incubated for another 24 hours. Finally, the medium was collected and Dil fluorescence intensity in the media was measured using a CLARIOstar multi-mode microplate reader.

Setting [6] is: EIPA vs vehicle, WT and CD36-/-/SR-A-/- mice.
Setting [7] is: EIPA vs vehicle, WT and CD36-/-/SR-A-/- mice, LCA.

“Also recorded” adds a separate entry of the source.

`CCN(c1nc(N)c(C(=O)N=C(N)N)nc1Cl)C(C)C` [EIPA, 5-(N-ethyl-N-isopropyl)amiloride]: the “SR-mediated ox-LDL uptake” value in data set [1] is recorded as “without inhibiting; also recorded: does not inhibit”. Further, the “Cytotoxicity (LIVE/DEAD Fixable Cell Stain)” value with RAW 264.7 macrophages [2] was “no cell death”. Also, in data set [3] (setting [6]), the “blood pressure (systolic)” value is listed as “not different” and the body weight result is given as “not different”. Besides, in data set [3] (setting [7]), the “CD68+ macrophage staining” value is “significantly decreased”, the “Collagen content (Masson's trichrome)” value is on record as “significantly decreased” and the “atherosclerotic lesion area (H&E)” value is given as “significantly decreased”. In addition, the “atherosclerosis (plaque area, OMSB, LCA)” value in data set [3] (female WT mice, PCSK9-AAV (LDLR-deficient), Western diet 4 weeks, EIPA via subcutaneously implanted minipump) was “inhibited atherosclerosis; also recorded: attenuates”. Besides, the “inhibition of atherosclerotic lesion area (ORO positive area, LCA)” value in data set [3] (male CD36-/-/SR-A-/- mice, Western diet 4 weeks) was ~80%. In data set [3] (male WT mice, Western diet 4 weeks), the “inhibition of atherosclerotic lesion area (ORO positive area, LCA)” value is listed as ~80%. In addition, in data set [3] (wild-type and SR knockout mice), the atherosclerosis development result was “reduces”. Besides, in data set [4], the “ox- and ac-LDL internalization (Nile Red fluorescence)” value is given as “inhibits”. Besides, the “cholesterol efflux in lipid-laden macrophages” value in the data set on RAW 264.7 macrophages [5] is “does not promote”.

The values are drawn from patent US20210386754A1, “COMPOSITIONS AND METHODS FOR TREATING ATHEROSCLEROTIC VASCULAR DISEASE” (AUGUSTA UNIVERSITY RESEARCH INSTITUTE, INC., priority 2020, published 2021).
